Assay results from doi:10.1101/2023.03.24.534094v2 (biorxiv, 2023).
Read-outs that look alike come from different tables or passages of the source. One block for each compound: values may come before it.

What was measured:
Test in all cases: biochemical
CDKL1 = CDKL1 (Homo sapiens, UniProt Q00532)
DAPK1 = DAPK1 (Homo sapiens, UniProt P53355)
EpHA2 = EpHA2 (Homo sapiens, UniProt P29317)
MYT1 = biological target: T1, MYT1 (Homo sapiens, UniProt Q99640)
T1 sequence (Q99640 1-499): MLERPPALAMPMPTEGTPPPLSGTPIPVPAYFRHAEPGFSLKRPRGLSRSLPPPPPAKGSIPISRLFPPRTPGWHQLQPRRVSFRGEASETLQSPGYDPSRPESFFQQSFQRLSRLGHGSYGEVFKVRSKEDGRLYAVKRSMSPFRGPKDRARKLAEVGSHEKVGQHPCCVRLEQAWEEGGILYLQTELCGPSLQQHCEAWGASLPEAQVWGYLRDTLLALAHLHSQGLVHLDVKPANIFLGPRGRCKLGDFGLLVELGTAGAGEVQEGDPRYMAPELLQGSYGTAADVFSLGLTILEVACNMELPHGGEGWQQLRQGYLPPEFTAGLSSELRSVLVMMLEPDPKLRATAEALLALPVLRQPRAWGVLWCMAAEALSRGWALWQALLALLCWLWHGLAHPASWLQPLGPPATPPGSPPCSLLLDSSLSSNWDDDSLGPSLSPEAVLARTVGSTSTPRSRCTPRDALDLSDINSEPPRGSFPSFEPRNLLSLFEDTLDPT

EpHA5 = EpHA5 (Homo sapiens, UniProt P54756)
Haspin = biological target: T2, Haspin (Homo sapiens, UniProt Q8TF76)
T2 sequence (Q8TF76 1-798): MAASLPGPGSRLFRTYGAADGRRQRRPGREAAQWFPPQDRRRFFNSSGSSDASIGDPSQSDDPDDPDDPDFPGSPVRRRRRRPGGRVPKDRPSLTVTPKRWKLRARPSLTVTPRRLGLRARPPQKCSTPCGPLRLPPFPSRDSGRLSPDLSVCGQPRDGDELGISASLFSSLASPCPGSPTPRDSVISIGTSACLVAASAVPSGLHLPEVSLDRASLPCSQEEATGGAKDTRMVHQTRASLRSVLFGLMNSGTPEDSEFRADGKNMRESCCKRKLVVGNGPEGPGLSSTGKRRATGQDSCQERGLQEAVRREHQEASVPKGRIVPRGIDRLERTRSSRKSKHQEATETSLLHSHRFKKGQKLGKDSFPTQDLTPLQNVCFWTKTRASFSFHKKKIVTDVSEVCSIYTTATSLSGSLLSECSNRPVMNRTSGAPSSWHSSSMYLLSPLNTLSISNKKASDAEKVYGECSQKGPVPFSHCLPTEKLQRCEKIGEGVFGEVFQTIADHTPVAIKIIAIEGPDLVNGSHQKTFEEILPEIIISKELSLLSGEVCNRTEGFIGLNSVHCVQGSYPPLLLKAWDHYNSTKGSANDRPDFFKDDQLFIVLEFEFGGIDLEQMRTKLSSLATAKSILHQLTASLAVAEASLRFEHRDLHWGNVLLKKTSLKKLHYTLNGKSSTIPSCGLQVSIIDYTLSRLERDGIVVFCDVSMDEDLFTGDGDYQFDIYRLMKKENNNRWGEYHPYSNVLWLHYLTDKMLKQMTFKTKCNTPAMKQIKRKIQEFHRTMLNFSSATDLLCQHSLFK

CK2a2 = CK2a2 (Homo sapiens, UniProt P19784)
CK2a2, sequence (P19784 whole entry): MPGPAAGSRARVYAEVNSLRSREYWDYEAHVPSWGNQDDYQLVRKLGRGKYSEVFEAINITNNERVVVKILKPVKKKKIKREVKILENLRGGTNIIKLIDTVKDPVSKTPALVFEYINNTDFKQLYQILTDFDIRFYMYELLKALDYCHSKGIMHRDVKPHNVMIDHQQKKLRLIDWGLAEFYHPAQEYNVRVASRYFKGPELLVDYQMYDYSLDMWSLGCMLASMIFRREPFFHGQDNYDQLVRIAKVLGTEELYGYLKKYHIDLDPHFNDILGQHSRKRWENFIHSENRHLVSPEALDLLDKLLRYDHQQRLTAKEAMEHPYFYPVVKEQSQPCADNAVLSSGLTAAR

EpHA2, sequence (P29317 whole entry): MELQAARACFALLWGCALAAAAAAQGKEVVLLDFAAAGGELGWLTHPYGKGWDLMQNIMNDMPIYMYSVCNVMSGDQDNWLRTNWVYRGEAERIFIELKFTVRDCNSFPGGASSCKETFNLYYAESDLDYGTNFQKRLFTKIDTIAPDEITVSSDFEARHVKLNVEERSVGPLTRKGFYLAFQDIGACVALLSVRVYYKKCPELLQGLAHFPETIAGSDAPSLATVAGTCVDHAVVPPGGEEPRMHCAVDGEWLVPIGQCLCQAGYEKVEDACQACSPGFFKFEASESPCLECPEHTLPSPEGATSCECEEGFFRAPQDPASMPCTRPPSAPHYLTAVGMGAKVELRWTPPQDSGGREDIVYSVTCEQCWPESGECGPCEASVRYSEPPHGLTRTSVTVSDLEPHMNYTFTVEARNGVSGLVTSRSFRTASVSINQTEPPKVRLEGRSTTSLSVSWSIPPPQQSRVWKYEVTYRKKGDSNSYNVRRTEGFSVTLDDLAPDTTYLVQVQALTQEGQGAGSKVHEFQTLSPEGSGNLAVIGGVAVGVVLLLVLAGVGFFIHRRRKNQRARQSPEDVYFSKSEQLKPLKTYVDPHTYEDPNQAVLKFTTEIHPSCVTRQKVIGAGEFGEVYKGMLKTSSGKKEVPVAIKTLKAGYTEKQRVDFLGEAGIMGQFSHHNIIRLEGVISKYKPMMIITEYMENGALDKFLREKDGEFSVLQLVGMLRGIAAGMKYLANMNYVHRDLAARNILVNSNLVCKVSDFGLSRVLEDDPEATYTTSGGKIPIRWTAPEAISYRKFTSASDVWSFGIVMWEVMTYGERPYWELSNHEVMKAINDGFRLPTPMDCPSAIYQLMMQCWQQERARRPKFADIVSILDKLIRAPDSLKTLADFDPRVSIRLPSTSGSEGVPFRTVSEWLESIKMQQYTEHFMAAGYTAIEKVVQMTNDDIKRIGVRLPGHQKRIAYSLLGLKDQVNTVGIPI
CDKL1, sequence (Q00532 whole entry): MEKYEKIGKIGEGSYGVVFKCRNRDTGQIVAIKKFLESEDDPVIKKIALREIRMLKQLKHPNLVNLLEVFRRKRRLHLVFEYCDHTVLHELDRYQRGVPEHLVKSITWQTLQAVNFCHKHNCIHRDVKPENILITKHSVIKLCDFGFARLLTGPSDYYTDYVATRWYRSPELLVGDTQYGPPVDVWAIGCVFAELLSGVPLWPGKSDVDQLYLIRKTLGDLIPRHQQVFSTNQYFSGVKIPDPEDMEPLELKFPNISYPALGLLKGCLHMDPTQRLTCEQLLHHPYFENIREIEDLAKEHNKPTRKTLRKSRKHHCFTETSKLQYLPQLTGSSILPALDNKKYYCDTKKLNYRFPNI
DAPK1, sequence (P53355 whole entry): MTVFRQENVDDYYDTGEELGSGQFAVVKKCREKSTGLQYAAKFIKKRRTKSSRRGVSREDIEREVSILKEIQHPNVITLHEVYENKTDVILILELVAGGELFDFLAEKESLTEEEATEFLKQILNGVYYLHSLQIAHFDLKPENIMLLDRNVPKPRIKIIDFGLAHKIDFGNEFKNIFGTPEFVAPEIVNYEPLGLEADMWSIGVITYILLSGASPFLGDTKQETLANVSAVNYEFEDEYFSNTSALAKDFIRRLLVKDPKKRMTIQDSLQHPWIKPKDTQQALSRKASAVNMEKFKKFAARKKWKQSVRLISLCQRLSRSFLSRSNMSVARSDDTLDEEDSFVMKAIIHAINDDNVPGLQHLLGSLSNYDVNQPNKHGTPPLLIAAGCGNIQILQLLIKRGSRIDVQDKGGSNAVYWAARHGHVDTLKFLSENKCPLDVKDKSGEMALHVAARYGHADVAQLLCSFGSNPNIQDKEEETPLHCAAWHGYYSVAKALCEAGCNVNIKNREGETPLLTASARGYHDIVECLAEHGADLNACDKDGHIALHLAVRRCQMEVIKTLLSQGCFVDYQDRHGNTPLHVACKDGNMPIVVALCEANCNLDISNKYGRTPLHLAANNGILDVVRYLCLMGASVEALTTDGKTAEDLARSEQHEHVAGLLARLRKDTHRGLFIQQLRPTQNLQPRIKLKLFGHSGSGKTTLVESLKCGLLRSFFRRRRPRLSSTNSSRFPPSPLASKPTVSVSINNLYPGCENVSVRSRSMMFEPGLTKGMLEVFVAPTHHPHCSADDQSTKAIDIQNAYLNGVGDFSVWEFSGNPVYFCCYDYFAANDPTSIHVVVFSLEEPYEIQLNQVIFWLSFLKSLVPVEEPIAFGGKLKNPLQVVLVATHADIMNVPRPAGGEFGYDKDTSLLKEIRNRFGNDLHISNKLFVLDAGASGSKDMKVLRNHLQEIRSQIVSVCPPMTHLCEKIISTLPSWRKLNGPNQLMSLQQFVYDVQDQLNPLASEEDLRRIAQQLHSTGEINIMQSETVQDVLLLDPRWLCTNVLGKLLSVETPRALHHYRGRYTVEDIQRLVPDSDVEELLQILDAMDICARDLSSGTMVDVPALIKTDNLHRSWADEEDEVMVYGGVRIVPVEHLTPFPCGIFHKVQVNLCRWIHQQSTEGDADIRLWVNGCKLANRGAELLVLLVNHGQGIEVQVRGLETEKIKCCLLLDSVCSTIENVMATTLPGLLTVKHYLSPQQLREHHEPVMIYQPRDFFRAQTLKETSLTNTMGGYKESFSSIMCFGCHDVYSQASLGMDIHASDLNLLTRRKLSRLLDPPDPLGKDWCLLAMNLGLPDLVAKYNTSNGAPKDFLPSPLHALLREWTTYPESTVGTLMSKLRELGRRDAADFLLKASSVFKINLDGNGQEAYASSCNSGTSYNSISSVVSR
EpHA5, sequence (P54756 whole entry): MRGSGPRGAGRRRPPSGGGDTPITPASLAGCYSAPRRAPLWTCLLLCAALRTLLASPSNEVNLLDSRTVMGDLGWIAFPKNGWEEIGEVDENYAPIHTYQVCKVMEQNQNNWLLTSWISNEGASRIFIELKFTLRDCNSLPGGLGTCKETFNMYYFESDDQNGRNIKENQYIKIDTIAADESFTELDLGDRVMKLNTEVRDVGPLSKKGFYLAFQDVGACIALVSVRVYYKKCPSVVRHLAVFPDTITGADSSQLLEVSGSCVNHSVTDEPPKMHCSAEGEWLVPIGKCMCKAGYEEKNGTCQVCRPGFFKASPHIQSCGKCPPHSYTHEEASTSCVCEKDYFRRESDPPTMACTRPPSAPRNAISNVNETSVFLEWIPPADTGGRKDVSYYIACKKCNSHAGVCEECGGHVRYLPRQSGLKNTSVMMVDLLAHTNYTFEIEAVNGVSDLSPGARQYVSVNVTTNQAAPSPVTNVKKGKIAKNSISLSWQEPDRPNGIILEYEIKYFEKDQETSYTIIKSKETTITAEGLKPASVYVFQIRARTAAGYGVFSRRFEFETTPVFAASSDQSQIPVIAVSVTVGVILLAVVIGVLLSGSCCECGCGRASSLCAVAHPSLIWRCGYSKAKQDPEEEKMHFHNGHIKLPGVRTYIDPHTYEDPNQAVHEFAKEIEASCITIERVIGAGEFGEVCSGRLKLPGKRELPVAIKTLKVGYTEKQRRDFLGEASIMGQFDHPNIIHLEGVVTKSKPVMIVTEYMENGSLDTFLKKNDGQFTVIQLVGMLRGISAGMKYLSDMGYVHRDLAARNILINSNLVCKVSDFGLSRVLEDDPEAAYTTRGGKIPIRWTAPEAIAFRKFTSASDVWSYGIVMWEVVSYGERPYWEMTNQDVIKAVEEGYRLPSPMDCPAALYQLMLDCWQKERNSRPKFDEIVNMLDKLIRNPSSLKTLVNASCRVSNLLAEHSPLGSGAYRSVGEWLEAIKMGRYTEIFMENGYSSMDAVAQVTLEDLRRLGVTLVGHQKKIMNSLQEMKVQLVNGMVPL

Structure (SMILES): CNc1ncc2cc(-c3ccc(-c4cccc(C)n4)cc3Cl)c(=O)n(CC3OCC(N)CO3)c2n1 (centres unmarked) [compound 2, G-5555]
dTm G-5555 (2) (CDKL1; 10 µM, binder): -0.1 °C | dTm G-5555 (2) (DAPK1; 10 µM, binder): -1.0 °C | dTm G-5555 (2) (EpHA2; 10 µM, binder): 2.2 °C | dTm G-5555 (2) (MYT1; 10 µM, binder): -2.1 °C | dTm G-5555 (2) (EpHA5; 10 µM, binder): 2.7 °C | dTm G-5555 (2) (Haspin; 10 µM, binder): 0.2 °C | dTm G-5555 (2) (CK2a2; 10 µM, binder): -0.6 °C

Structure (SMILES): CNc1ncc2cc(-c3ccccc3Cl)c(=O)n(CCCCN)c2n1 [compound 4, 8-(4-Aminobutyl)-6-(2-chlorophenyl)-2-(methylamino)pyrido[2,3-d]pyrimidin-7(8H)-one]
ΔTm at 10 µM (CDKL1; read-out: dTm MR21 (4)): 0.5 °C | ΔTm at 10 µM (DAPK1; read-out: dTm MR21 (4)): -0.2 °C | ΔTm at 10 µM (MYT1; read-out: dTm MR21 (4)): -2.3 °C | ΔTm at 10 µM (Haspin; read-out: dTm MR21 (4)): 0.7 °C | ΔTm at 10 µM (CK2a2; read-out: dTm MR21 (4)): -0.3 °C

More lines, now with the values ahead:

ΔTm at 10 µM (CDKL1; read-out: dTm 6): 0 °C | ΔTm at 10 µM (DAPK1; read-out: dTm 6): -0.2 °C | ΔTm at 10 µM (EpHA2; read-out: dTm 6): 6.7 °C | ΔTm at 10 µM (MYT1; read-out: dTm 6): -1.4 °C | ΔTm at 10 µM (EpHA5; read-out: dTm 6): 4.5 °C | ΔTm at 10 µM (Haspin; read-out: dTm 6): 0.7 °C | ΔTm at 10 µM (CK2a2; read-out: dTm 6): -0.1 °C
Structure (SMILES): CNc1ncc2cc(-c3cc(Br)ccc3Cl)c(=O)n(CCCCN)c2n1 [compound 6, 8-(4-Aminobutyl)-6-(5-bromo-2-chlorophenyl)-2-(methylamino)pyrido[2,3-d]pyrimidin-7(8H)-one]

ΔTm at 10 µM (CDKL1; read-out: dTm MR22 (5)): 0.5 °C | ΔTm at 10 µM (DAPK1; read-out: dTm MR22 (5)): -0.7 °C | ΔTm at 10 µM (EpHA2; read-out: dTm MR22 (5)): 6.5 °C | ΔTm at 10 µM (MYT1; read-out: dTm MR22 (5)): -2.1 °C | ΔTm at 10 µM (Haspin; read-out: dTm MR22 (5)): -0.3 °C | ΔTm at 10 µM (CK2a2; read-out: dTm MR22 (5)): -1 °C
Structure (SMILES): CNc1ncc2cc(-c3cc(F)ccc3F)c(=O)n(CCCCN)c2n1 [compound 5, 8-(4-Aminobutyl)-6-(2,5-difluorophenyl)-2-(methylamino)pyrido[2,3-d]pyrimidin-7(8H)-one]

ΔTm at 10 µM (CDKL1; read-out: dTm 7): -0.1 °C | ΔTm at 10 µM (DAPK1; read-out: dTm 7): 0.1 °C | ΔTm at 10 µM (EpHA2; read-out: dTm 7): 4.8 °C | ΔTm at 10 µM (MYT1; read-out: dTm 7): 0.1 °C | ΔTm at 10 µM (EpHA5; read-out: dTm 7): 3.2 °C | ΔTm at 10 µM (Haspin; read-out: dTm 7): 0.7 °C | ΔTm at 10 µM (CK2a2; read-out: dTm 7): 0.1 °C
Structure (SMILES): CNc1ncc2cc(-c3cc(Br)ccc3Cl)c(=O)n(C[C@H]3OC[C@H](N)CO3)c2n1 [compound 7, 8-(((2r,5r)-5-Amino-1,3-dioxan-2-yl)methyl)-6-(5-bromo-2-chlorophenyl)-2-(methylamino)pyrido[2,3-d]pyrimidin-7(8H)-one]
